In patent US10717742B2, “Spiro[3H-indole-3,2′-pyrrolidin]-2(1H)-one compounds and derivatives as MDM2-P53 inhibitors” (Boehringer Ingelheim International GmbH, priority 2015, dated 2020):

Biological target: p53-MDM2 interaction (GST-MDM2 protein aa 23-117 / biotinylated p53 wt peptide) (Homo sapiens (Human), UniProt Q00987)
Experiment: Mdm2-p53 Inhibition AlphaScreen
Format: binding
Conditions: GST-MDM2 (aa 23-117) / biotinylated p53 wt peptide
Experimental: Mdm2-p53 Inhibition AlphaScreen
15 μL of compound in 20% DMSO (serial pre-dilutions of compound are done in 100% DMSO) is pipetted to the wells of a white OptiPlate-96 (Perkin Elmer). A mix consisting of 20 nM GST-MDM2 protein (aa 23-117) and 20 nM biotinylated p53 wt peptide (encompassing aa 16-27 of wt human p53, amino acid sequence […]-Ttds-Lys-Biotin, molecular weight 2132.56 g/mol) is prepared in assay buffer (50 mM Tris/HCl pH 7.2; 120 mM NaCl; 0.1% bovine serum albumin (BSA); 5 mM dithiothreitol (DTT); 1 mM ethylenediaminetetraacetic acid (EDTA); 0.01% Tween 20). 30 μL of the mix is added to the compound dilutions and incubated for 15 min at rt while gently shaking the plate at 300 rounds per minute (rpm). Subsequently, 15 μL of premixed AlphaLISA Glutathione Acceptor Beads and AlphaScreen Streptavidin Donor Beads from PerkinElmer (in assay buffer at a concentration of 10 μg/mL each) are added and the samples are incubated for 30 min at rt in the dark (shaking 300 rpm). Afterwards, the signal is measured in a PerkinElmer Envision HIS Multilabel Reader using the AlphaScreen protocol from Perkin Elmer.
Each plate contains negative controls where biotinylated p53-peptide and GST-MDM2 are left out and replaced by assay buffer. Negative control values are entered as low basis value when using the software GraphPad Prism for calculations. Furthermore, a positive control (5% DMSO instead of test compound; with protein/peptide mix) is pipetted. Determination of IC50 values are carried out using GraphPad Prism 3.03 software (or updates thereof).

Sequence of p53-MDM2 interaction (GST-MDM2 protein aa 23-117 / biotinylated p53 wt peptide) (Q00987 23-117): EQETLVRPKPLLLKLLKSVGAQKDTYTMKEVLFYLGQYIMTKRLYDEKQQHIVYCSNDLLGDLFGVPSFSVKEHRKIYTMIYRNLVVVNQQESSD

| SMILES | IC50 [nM] |
| --- | --- |
| CCN1[C@H]2Cc3c4ccc(C(=O)NC5(C)COC5)cc4nn3[C@H]2[C@H](c2cccc(Cl)c2F)[C@]12C(=O)Nc1cc(Cl)ccc12 [Ia-53] | 7 |
| CCOc1cccc(CN2[C@H]3Cc4c5cc(C)c(C(=O)NC)cc5nn4[C@H]3[C@H](c3cccc(Cl)c3F)[C@]23C(=O)Nc2cc(Cl)ccc23)c1 [Ia-56] | 5 |
| CS(=O)(=O)c1ccc2c(c1)nc1n2CC[C@H]2[C@@H]1[C@H](c1cccc(Cl)c1F)[C@]1(C(=O)Nc3cc(Cl)ccc31)N2CC1CC1 [Ib-57] | 12 |
| CS(=O)(=O)c1ccc2c(c1)nc1n2CC[C@H]2[C@@H]1[C@H](c1cccc(Cl)c1F)[C@]1(C(=O)Nc3cc(Cl)ccc31)N2CC1CC1 [Ib-58] | 7 |
| CC(=O)Nc1ccc2c(c1)nc1n2CC[C@H]2[C@@H]1[C@H](c1cccc(Cl)c1F)[C@]1(C(=O)Nc3cc(Cl)ccc31)N2CC1CC1 [Ib-59] | 15 |
| O=C(O)c1ccc2c(c1)nc1n2CC[C@H]2[C@@H]1[C@H](c1cccc(Cl)c1F)[C@]1(C(=O)Nc3cc(Cl)ccc31)N2CC1CC1 [Ib-107] | 2 |
| O=C(O)c1ccc2c(c1)nc1n2CC[C@@H]2[C@H]1[C@@H](c1cccc(Cl)c1F)[C@@]1(C(=O)Nc3cc(Cl)ccc31)N2CC1CC1 [Ib-108] | 79 |
| CC(C)CN1[C@H]2CCn3c(nc4cc(C(=O)O)ccc43)[C@H]2[C@H](c2cccc(Cl)c2F)[C@]12C(=O)Nc1cc(Cl)ccc12 [Ib-110] | 3 |
| CCN1[C@H]2CCn3c(nc4cc(C(=O)O)ccc43)[C@H]2[C@H](c2cccc(Cl)c2F)[C@]12C(=O)Nc1cc(Cl)ccc12 [Ib-111] | 7 |
| CCCN1[C@H]2CCn3c(nc4cc(C(=O)O)ccc43)[C@H]2[C@H](c2cccc(Cl)c2F)[C@]12C(=O)Nc1cc(Cl)ccc12 [Ib-113] | 4 |
| CC(C)=CCN1[C@H]2CCn3c(nc4cc(C(=O)O)ccc43)[C@H]2[C@H](c2cccc(Cl)c2F)[C@]12C(=O)Nc1cc(Cl)ccc12 [Ib-121] | 11 |
| CC(C)(C)OCCN1[C@H]2CCn3c(nc4cc(C(=O)O)ccc43)[C@H]2[C@H](c2cccc(Cl)c2F)[C@]12C(=O)Nc1cc(Cl)ccc12 [Ib-131] | 22 |
| O=C(O)c1ccc2c(c1)nc1n2CC[C@H]2[C@@H]1[C@H](c1cccc(Cl)c1F)[C@]1(C(=O)Nc3cc(Cl)ccc31)N2CC1CCCC1 [Ib-135] | 15 |
| CCOc1cccc(CN2[C@@H]3CCn4c(nc5cc(C(=O)O)ccc54)[C@@H]3[C@@H](c3cccc(Cl)c3F)[C@@]23C(=O)Nc2cc(Cl)ccc23)c1 [Ib-141] | 48 |
| COc1cccc(CCN2[C@H]3CCn4c(nc5cc(C(=O)O)ccc54)[C@H]3[C@H](c3cccc(Cl)c3F)[C@]23C(=O)Nc2cc(Cl)ccc23)c1 [Ib-144] | 8 |
| O=C(O)c1ccc2c(c1)nc1n2CC[C@H]2[C@@H]1[C@H](c1cccc(Cl)c1F)[C@]1(C(=O)Nc3cc(Cl)ccc31)N2CCC(F)(F)F [Ib-146] | 11 |
| CC(C)(C)CN1[C@H]2CCn3c(nc4cc(C(=O)O)ccc43)[C@H]2[C@H](c2cccc(Cl)c2F)[C@]12C(=O)Nc1cc(Cl)ccc12 [Ib-150] | 20 |
| O=C(O)c1ccc2nc3n(c2c1)CC[C@H]1[C@@H]3[C@H](c2cccc(Cl)c2F)[C@]2(C(=O)Nc3cc(Cl)ccc32)N1CC1CC1 [Ib-154] | 3 |
| O=C(O)c1ccc2nc3n(c2c1)CC[C@H]1[C@@H]3[C@H](c2cccc(Cl)c2F)[C@]2(C(=O)Nc3cc(Cl)ccc32)N1CC1CC1 [Ib-155] | 2 |
| Cc1c(C(=O)O)ccc2c1nc1n2CC[C@H]2[C@@H]1[C@H](c1cccc(Cl)c1F)[C@]1(C(=O)Nc3cc(Cl)ccc31)N2CC1CC1 [Ib-160] | 4 |
| CC(C)c1cc2c(cc1C(=O)O)nc1n2CC[C@H]2[C@@H]1[C@H](c1cccc(Cl)c1F)[C@]1(C(=O)Nc3cc(Cl)ccc31)N2CC1CC1 [Ib-162] | 6 |
| O=C(O)c1cc2nc3n(c2cc1F)CC[C@H]1[C@@H]3[C@H](c2cccc(Cl)c2F)[C@]2(C(=O)Nc3cc(Cl)ccc32)N1CC1CC1 [Ib-163] | 2 |
| O=C(O)c1cc2nc3n(c2cc1C(F)(F)F)CC[C@H]1[C@@H]3[C@H](c2cccc(Cl)c2F)[C@]2(C(=O)Nc3cc(Cl)ccc32)N1CC1CC1 [Ib-164] | 3 |

The remaining lines, values ahead:

| IC50 [nM] | SMILES |
| --- | --- |
| 69 | CCN1[C@H]2Cc3c4ccc(C(=O)N5CCCCC5)cc4nn3[C@H]2[C@H](c2cccc(Cl)c2F)[C@]12C(=O)Nc1cc(Cl)ccc12 [Ia-52] |
| 13 | CCOc1cccc(CN2[C@H]3Cc4c5cc(C)c(C(=O)N6CCOCC6)cc5nn4[C@H]3[C@H](c3cccc(Cl)c3F)[C@]23C(=O)Nc2cc(Cl)ccc23)c1 [Ia-54] |
| 6 | CCOc1cccc(CN2[C@H]3Cc4c5cc(C)c(C(=O)NCCOC)cc5nn4[C@H]3[C@H](c3cccc(Cl)c3F)[C@]23C(=O)Nc2cc(Cl)ccc23)c1 [Ia-55] |
| 13 | CCOc1cccc(CN2[C@H]3Cc4c5cc(C)c(C(=O)N(C)C)cc5nn4[C@H]3[C@H](c3cccc(Cl)c3F)[C@]23C(=O)Nc2cc(Cl)ccc23)c1 [Ia-57] |
| 5 | CCOc1cccc(CN2[C@H]3Cn4c(nc5cc(C(=O)OC)ccc54)[C@H]3[C@H](c3cccc(Cl)c3F)[C@]23C(=O)Nc2cc(Cl)ccc23)c1 [Ib-49] |
| 166 | COC(=O)c1ccc2c(c1)nc1n2CC[C@H]2[C@@H]1[C@H](c1cccc(Cl)c1F)[C@]1(C(=O)Nc3cc(Cl)ccc31)N2CC=C(C)C [Ib-66] |
| 3 | O=C(O)c1ccc2c(c1)nc1n2CC[C@H]2[C@@H]1[C@H](c1cccc(Cl)c1F)[C@]1(C(=O)Nc3cc(Cl)ccc31)N2CC1CC1 [Ib-106] |
| 8 | CC(C)CN1[C@H]2CCn3c(nc4cc(C(=O)O)ccc43)[C@H]2[C@H](c2cccc(Cl)c2F)[C@]12C(=O)Nc1cc(Cl)ccc12 [Ib-109] |
| 7 | CCCCN1[C@H]2CCn3c(nc4cc(C(=O)O)ccc43)[C@H]2[C@H](c2cccc(Cl)c2F)[C@]12C(=O)Nc1cc(Cl)ccc12 [Ib-115] |
| 8 | CCCCCN1[C@H]2CCn3c(nc4cc(C(=O)O)ccc43)[C@H]2[C@H](c2cccc(Cl)c2F)[C@]12C(=O)Nc1cc(Cl)ccc12 [Ib-117] |
| 12 | CC(C)CCN1[C@H]2CCn3c(nc4cc(C(=O)O)ccc43)[C@H]2[C@H](c2cccc(Cl)c2F)[C@]12C(=O)Nc1cc(Cl)ccc12 [Ib-119] |
| 4 | O=C(O)c1ccc2c(c1)nc1n2CC[C@H]2[C@@H]1[C@H](c1cccc(Cl)c1F)[C@]1(C(=O)Nc3cc(Cl)ccc31)N2CC1CCC1 [Ib-123] |
| 14 | O=C(O)c1ccc2c(c1)nc1n2CC[C@H]2[C@@H]1[C@H](c1cccc(Cl)c1F)[C@]1(C(=O)Nc3cc(Cl)ccc31)N2CC1CC(F)(F)C1 [Ib-125] |
| 11 | COCCN1[C@H]2CCn3c(nc4cc(C(=O)O)ccc43)[C@H]2[C@H](c2cccc(Cl)c2F)[C@]12C(=O)Nc1cc(Cl)ccc12 [Ib-127] |
| 10 | CC(C)OCCN1[C@H]2CCn3c(nc4cc(C(=O)O)ccc43)[C@H]2[C@H](c2cccc(Cl)c2F)[C@]12C(=O)Nc1cc(Cl)ccc12 [Ib-129] |
| 58 | CS(=O)(=O)CCCN1[C@H]2CCn3c(nc4cc(C(=O)O)ccc43)[C@H]2[C@H](c2cccc(Cl)c2F)[C@]12C(=O)Nc1cc(Cl)ccc12 [Ib-133] |
| 34 | O=C(O)c1ccc2c(c1)nc1n2CC[C@H]2[C@@H]1[C@H](c1cccc(Cl)c1F)[C@]1(C(=O)Nc3cc(Cl)ccc31)N2CC1CCCCC1 [Ib-137] |
| 4 | CCOc1cccc(CN2[C@H]3CCn4c(nc5cc(C(=O)O)ccc54)[C@H]3[C@H](c3cccc(Cl)c3F)[C@]23C(=O)Nc2cc(Cl)ccc23)c1 [Ib-139] |
| 2 | CCOc1cccc(CN2[C@H]3CCn4c(nc5cc(C(=O)O)ccc54)[C@H]3[C@H](c3cccc(Cl)c3F)[C@]23C(=O)Nc2cc(Cl)ccc23)c1 [Ib-140] |
| 3 | COCc1cccc(CN2[C@H]3CCn4c(nc5cc(C(=O)O)ccc54)[C@H]3[C@H](c3cccc(Cl)c3F)[C@]23C(=O)Nc2cc(Cl)ccc23)c1 [Ib-142] |
| 21 | N#CC12CC(CN3[C@H]4CCn5c(nc6cc(C(=O)O)ccc65)[C@H]4[C@H](c4cccc(Cl)c4F)[C@]34C(=O)Nc3cc(Cl)ccc34)(C1)C2 [Ib-148] |
| 7 | N#Cc1ccc2c(c1)NC(=O)[C@]21[C@@H](c2cccc(Cl)c2F)[C@@H]2c3nc4cc(C(=O)O)ccc4n3CC[C@@H]2N1CC1CC1 [Ib-152] |
| 5 | O=C(O)c1cccc2nc3n(c12)CC[C@H]1[C@@H]3[C@H](c2cccc(Cl)c2F)[C@]2(C(=O)Nc3cc(Cl)ccc32)N1CC1CC1 [Ib-156] |
| 2 | COc1cc2c(cc1C(=O)O)nc1n2CC[C@H]2[C@@H]1[C@H](c1cccc(Cl)c1F)[C@]1(C(=O)Nc3cc(Cl)ccc31)N2CC1CC1 [Ib-157] |
| 3 | O=C(O)c1cc2nc3n(c2cc1OC(F)(F)F)CC[C@H]1[C@@H]3[C@H](c2cccc(Cl)c2F)[C@]2(C(=O)Nc3cc(Cl)ccc32)N1CC1CC1 [Ib-158] |
| 7 | Cc1cc2c(cc1C(=O)O)nc1n2CC[C@H]2[C@@H]1[C@H](c1cccc(Cl)c1F)[C@]1(C(=O)Nc3cc(Cl)ccc31)N2CC1CC1 [Ib-159] |
| 11 | Cc1cc2c(nc3n2CC[C@H]2[C@@H]3[C@H](c3cccc(Cl)c3F)[C@]3(C(=O)Nc4cc(Cl)ccc43)N2CC2CC2)c(C)c1C(=O)O [Ib-161] |
